{"source": "patent EP2077109A1", "about": "“AMIDE COMPOUND, SALT THEREOF, AND BIOFILM REMOVER USING THEM” (The University of Tokyo, priority 2006, dated 2008)", "origin": "cited, not measured here", "tested_on": "autoinducer", "details": "statement taken from Patent Document 1 (JP 2006-512290)", "data": [{"smiles": "CCCCCCCCCC(=O)CC(=O)NN1CCCCC1", "values": [{"measurement": "autoinducer agonist activity", "result": "exhibits autoinducer agonist activity"}]}]}
